Data: publication PMC5216056 (Nature Communications, 2017)
Read-outs that look alike come from different tables or passages of the source.

Key:
[1] = system: AEA cellular uptake in HMC-1 cells; assay: cells; type: cell-based, human; conditions: read-out: AEA reuptake IC50 (95% CI) HMC-1 cells; FAAH-deficient cells
[2] = target: T1, Rat recombinant TRPV4 (Rattus norvegicus, UniProt Q9ERZ8); assay: cell-based; type: cell-based; conditions: for IC50: vs 4αPDD 1μM, read-out: TRPV4 IC50 for desensitization
T1 construct: expressed in transfected cells; host or cells: HEK293 (TRPV4-HEK-293, gift from HB Bradshaw, Indiana University)
T1 sequence (Q9ERZ8 whole entry): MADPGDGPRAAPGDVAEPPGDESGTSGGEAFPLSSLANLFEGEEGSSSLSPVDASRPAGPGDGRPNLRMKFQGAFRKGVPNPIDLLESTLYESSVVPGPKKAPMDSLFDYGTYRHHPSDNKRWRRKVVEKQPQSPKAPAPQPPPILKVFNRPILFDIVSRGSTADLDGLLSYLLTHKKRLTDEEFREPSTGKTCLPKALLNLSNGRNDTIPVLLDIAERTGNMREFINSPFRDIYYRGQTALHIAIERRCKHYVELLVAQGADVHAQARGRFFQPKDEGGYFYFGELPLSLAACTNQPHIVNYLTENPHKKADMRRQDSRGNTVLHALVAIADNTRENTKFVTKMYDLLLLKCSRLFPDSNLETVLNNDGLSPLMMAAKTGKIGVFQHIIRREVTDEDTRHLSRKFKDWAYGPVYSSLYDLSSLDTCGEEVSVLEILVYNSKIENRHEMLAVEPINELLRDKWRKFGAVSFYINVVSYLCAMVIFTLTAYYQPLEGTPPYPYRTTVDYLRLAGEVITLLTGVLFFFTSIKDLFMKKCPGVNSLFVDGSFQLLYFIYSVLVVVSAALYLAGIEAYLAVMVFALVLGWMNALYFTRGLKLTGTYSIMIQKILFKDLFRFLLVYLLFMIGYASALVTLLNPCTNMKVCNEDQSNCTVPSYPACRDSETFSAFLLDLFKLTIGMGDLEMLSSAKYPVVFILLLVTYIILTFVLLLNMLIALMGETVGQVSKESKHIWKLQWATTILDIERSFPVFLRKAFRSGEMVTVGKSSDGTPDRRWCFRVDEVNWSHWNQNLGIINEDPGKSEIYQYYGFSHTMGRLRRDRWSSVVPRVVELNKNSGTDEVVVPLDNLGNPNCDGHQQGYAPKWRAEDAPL

[3] = target: T2, Rat recombinant TRPM8 (Rattus norvegicus, UniProt Q8R455); assay: TRP channel [Ca2+]i assay; type: cell-based; conditions: vs icilin […]; read-out: TRPM8 IC50 for antagonism of icilin
T2 construct: expressed in transfected cells; host or cells: HEK293 (TRPM8-HEK-293, gift from Mario van der Stelt)
T2 sequence (Q8R455 whole entry): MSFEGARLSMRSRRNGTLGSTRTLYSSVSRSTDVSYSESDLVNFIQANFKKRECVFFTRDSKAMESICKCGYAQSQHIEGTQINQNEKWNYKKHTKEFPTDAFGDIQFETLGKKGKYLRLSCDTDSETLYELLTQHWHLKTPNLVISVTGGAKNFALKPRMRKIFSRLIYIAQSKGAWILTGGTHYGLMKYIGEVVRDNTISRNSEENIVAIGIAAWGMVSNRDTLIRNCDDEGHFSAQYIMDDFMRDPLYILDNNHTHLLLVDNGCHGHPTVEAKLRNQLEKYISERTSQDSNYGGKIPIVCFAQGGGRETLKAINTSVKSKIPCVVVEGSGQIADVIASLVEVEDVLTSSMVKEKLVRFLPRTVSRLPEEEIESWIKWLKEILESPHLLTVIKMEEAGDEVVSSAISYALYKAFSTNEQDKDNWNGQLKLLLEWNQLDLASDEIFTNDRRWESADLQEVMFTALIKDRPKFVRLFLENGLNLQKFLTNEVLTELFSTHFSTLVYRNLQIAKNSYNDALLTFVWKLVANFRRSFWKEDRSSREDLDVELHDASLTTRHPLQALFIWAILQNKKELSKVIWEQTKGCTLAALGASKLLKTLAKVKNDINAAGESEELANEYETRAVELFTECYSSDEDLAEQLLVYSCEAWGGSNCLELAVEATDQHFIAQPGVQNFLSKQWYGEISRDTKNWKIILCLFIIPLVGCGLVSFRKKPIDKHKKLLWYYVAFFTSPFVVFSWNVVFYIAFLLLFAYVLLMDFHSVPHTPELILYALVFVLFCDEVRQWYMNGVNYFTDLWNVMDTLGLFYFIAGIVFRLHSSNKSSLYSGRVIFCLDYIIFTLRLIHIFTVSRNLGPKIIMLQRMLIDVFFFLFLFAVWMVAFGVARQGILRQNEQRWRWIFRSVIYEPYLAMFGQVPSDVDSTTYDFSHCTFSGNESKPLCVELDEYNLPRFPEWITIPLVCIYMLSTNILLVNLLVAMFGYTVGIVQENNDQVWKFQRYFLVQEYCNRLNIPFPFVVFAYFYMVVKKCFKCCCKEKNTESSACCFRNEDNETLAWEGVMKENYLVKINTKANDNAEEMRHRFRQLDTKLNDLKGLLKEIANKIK

[4] = target: T3, hCB2R (Homo sapiens, UniProt P34972); assay: cell-based; type: cell-based; parameters: expressed in transfected cells; host or cells: Flp-In-293 (Invitrogen #R750-07), pcDNA5/FRT
T3 sequence (P34972 whole entry): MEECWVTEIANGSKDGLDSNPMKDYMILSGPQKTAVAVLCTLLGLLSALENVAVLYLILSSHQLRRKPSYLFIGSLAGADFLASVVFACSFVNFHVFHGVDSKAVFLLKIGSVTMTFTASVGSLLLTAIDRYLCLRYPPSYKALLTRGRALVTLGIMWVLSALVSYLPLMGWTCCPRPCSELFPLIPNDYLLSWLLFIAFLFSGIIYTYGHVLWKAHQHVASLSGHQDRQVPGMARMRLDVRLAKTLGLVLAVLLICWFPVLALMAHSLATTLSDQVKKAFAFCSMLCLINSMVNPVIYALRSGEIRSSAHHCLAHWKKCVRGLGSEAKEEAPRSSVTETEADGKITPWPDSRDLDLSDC

[5] = 1 μM
[6] = target: T4, hCB1R (Homo sapiens, UniProt P21554); assay: cell-based; type: cell-based
T4 construct: host or cells: CHO
T4 sequence (P21554 whole entry): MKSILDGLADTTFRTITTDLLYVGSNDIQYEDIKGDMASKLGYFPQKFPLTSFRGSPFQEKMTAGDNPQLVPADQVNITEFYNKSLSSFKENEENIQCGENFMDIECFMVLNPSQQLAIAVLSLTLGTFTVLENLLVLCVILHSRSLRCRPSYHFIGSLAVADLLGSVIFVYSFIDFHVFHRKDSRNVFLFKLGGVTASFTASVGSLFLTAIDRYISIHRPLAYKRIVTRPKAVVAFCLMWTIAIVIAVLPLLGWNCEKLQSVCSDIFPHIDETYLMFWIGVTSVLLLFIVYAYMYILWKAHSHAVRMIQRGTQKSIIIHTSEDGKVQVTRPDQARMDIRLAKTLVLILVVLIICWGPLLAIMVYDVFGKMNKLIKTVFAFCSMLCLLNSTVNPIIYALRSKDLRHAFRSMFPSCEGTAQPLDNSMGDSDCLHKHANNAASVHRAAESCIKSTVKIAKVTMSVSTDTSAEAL

[7] = target: T5, Rat recombinant TRPV3 (Rattus norvegicus, UniProt Q4QYD9); assay: cell-based; type: cell-based; conditions: for EC50: read-out: TRPV3 Potency EC50; for IC50: vs thymol 100μM, read-out: TRPV3 IC50 for antagonism or desensitization
T5 construct: expressed in transfected cells; host or cells: HEK293 (TRPV3-HEK-293, gift from HB Bradshaw, Indiana University)
T5 sequence (Q4QYD9 1-791): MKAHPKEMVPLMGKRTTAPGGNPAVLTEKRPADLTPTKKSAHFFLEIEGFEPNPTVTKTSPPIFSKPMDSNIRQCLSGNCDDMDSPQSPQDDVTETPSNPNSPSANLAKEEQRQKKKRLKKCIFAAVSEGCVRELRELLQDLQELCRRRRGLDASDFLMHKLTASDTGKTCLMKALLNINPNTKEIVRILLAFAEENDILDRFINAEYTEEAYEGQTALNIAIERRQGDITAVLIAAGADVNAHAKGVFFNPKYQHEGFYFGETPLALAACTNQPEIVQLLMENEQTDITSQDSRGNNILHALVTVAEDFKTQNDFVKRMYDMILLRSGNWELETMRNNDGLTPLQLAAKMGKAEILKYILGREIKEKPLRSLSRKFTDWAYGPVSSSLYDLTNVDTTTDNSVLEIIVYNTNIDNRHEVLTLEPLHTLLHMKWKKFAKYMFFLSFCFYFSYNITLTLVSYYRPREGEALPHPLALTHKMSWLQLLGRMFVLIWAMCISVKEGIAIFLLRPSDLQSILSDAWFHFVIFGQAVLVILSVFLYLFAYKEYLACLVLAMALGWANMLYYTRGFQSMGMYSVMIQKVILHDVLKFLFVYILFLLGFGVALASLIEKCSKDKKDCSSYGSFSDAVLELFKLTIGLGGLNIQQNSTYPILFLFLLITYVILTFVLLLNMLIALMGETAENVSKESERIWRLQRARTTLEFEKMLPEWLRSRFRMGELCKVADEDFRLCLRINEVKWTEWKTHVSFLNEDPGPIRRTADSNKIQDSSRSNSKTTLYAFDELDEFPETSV

[8] = target: T3, hCB2R; parameters: expressed in transfected cells; host or cells: Flp-In-293 (Invitrogen #R750-07), pcDNA5/FRT
[9] = target: T6, mu (MOP) (h) (Homo sapiens, UniProt P35372); assay: CEREP panel; type: binding; conditions: 10 µM
T6 construct: CEREP (contract assay)
T6 sequence (P35372 whole entry): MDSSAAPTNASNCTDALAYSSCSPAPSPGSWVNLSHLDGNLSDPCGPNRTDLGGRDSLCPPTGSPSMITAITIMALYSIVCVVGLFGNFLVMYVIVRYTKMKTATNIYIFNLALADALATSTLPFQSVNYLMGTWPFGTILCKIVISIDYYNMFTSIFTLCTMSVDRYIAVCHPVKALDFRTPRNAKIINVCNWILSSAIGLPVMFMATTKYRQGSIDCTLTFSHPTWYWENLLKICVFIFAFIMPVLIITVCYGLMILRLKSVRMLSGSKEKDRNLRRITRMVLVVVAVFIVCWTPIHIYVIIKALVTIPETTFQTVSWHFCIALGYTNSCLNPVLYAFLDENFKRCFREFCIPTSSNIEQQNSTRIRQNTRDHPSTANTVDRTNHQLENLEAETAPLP

[10] = target: T7, N muscle-type (h) (Homo sapiens, UniProt P02708+P07510+P11230+Q07001); assay: CEREP panel; type: binding; conditions: 10 µM
T7 construct: CEREP (contract assay)

[11] = target: T8, hGPR55 (Homo sapiens, UniProt Q9Y2T6); assay: cell-based
T8 construct: host or cells: CHO-K1 (PathHunter hGPR55_bgal)
T8 sequence (Q9Y2T6 whole entry): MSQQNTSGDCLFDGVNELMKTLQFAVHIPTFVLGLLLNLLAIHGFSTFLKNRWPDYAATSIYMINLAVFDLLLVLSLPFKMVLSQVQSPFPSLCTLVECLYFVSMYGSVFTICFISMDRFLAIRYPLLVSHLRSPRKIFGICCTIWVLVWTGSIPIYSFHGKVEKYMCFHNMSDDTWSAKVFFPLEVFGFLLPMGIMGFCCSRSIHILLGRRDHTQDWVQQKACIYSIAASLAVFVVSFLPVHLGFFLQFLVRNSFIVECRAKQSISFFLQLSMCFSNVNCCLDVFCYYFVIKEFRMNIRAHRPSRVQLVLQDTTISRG

[12] = target: T9, beta 1 (h) (Homo sapiens, UniProt P08588); assay: biochemical; type: binding; conditions: 10 µM
T9 construct: CEREP
T9 sequence (P08588 whole entry): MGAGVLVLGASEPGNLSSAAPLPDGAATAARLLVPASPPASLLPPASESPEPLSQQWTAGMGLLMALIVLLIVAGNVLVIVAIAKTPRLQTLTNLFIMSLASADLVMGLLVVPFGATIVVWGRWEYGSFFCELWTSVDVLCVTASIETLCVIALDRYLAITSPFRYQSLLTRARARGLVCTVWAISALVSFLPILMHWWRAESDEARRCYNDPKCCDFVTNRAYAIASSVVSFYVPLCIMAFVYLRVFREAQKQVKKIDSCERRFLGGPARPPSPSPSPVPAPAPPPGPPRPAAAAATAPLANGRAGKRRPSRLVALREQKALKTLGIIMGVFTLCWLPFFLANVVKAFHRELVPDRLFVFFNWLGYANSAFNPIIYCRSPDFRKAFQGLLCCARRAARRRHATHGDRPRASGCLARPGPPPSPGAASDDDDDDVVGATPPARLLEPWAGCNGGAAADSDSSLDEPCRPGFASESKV

[13] = 1 μM; remark: listed apart in the source
[14] = system: Ca2+ channel (L, diltiazem site); assay: CEREP panel; type: binding; conditions: 10 µM
[15] = 1 μM; remark: listed apart in the source

## CN1CCCC[C@@H]1Cn1cc(C(=O)c2cc([N+](=O)[O-])ccc2I)c2ccccc21 [(R)-AM1241]
[1]
  IC50: > 5 µM
[2]
  TRPV4 Efficacy (% ionomycin 4μM): < 10%
  IC50: 8.7 ± 0.5 µM
[3]
  IC50: > 50 µM
[4]
  pEC50 ± SEM GIRK hCB2R: < 5
[4]; normalized to CP55940
  Emax ± SEM GIRK hCB2R: 47 ± 13%
[5]
  CL microsomes mouse: 314 µL/min/mg protein
[6]
  Emax ± SEM pERK hCB1R: 78 ± 12
  pEC50 ± SEM pERK hCB1R: 5.66 ± 0.19
[7]
  TRPV3 Efficacy (% ionomycin 4μM): 12.9%
  EC50: 10 µM
  IC50: > 50 µM
[8]; hCB2R
  GIRK-GTPγS bias factor (BF): 0.04
  GIRK-GTPγS ΔΔlogR: -1.39
  LogR GIRK: 5.48
  LogR GTPγS: 7.3
  LogR pERK: 8.12
  LogR β-AR: 7.21
  pERK-GIRK bias factor (BF): 29.32
  pERK-GIRK ΔΔlogR: 1.47 ± 0.37
  pERK-GTPγS bias factor (BF): 1.18
  pERK-GTPγS ΔΔlogR: 0.07 ± 0.55
  β-AR-GIRK bias factor (BF): 12.13
  β-AR-GIRK ΔΔlogR: 1.08 ± 0.36
  β-AR-GTPγS bias factor (BF): 0.49
  β-AR-GTPγS ΔΔlogR: -0.31 ± 0.54
  β-AR-pERK bias factor (BF): 0.41
  β-AR-pERK ΔΔlogR: -0.38 ± 0.39
[8]; hCB2R, reference CP55940
  ΔLogR GIRK: -2.38
  ΔLogR GTPγS: -0.99
  ΔLogR pERK: -0.91
  ΔLogR β-AR: -1.30
[8]; hCB2R, relative effectiveness
  RE GIRK: 0.004
  RE GTPγS: 0.10
  RE pERK: 0.12
  RE β-AR: 0.05

## Cc1c(C(=O)NN2CCCCC2)nn(-c2ccc(Cl)cc2Cl)c1-c1ccc(I)cc1 [AM251]
[9]
  % inhibition mu (MOP) (h): 93%
[2]
  TRPV4 Efficacy (% ionomycin 4μM): < 10%
[10]
  % inhibition N muscle-type (h): 12%
[7]
  TRPV3 Efficacy (% ionomycin 4μM): 25.9%
[11]
  GPR55 pEC50 (± SEM): 5.49±0.09
[11]; β-arrestin recruitment
  GPR55 Emax ± SEM (%) or % effect at 10 µM: 82±9%
[12]
  % inhibition beta 1 (h): 25%

## Cc1ccc2c(c1)Cc1c(C(=O)NN3CCCCC3)nn(-c3ccc(Cl)cc3Cl)c1-2 [Gp-1a]
[13]
  CL hepatocytes mouse: 78 µL/min/mio cells
[9]
  % inhibition mu (MOP) (h): 102%
[1]
  IC50: > 5 µM
[2]
  TRPV4 Efficacy (% ionomycin 4μM): < 10%
  IC50: 2.2 ± 0.1 µM
[3]
  IC50: > 50 µM
[14]
  % inhibition Ca2+ channel (L, diltiazem site): 34%
[4]; 10^(pEC50 CB2R-pEC50 CB1R)
  CB2R Selectivity GIRK: 5 fold
[4]; antagonists in presence of CP55940
  pEC50 ± SEM GIRK hCB2R: 5.99 ± 0.08
[5]
  CL microsomes mouse: 134 µL/min/mg protein
[6]
  Emax ± SEM pERK hCB1R: 2 ± 3
[7]
  TRPV3 Efficacy (% ionomycin 4μM): < 10%
  IC50: 22.6 µM
[11]; β-arrestin recruitment
  GPR55 pEC50 (± SEM): < 5
[15]
  CL hepatocytes human: 32 µL/min/mio cells
[12]
  % inhibition beta 1 (h): 30%

## CCCCCCC(C)(C)c1cc(OC)c(C2=C[C@H]3CC[C@]2(CO)C3(C)C)c(OC)c1 [HU910]
[13]
  CL hepatocytes mouse: 34 µL/min/mio cells
[9]
  % inhibition mu (MOP) (h): 23%
[1]
  IC50: > 5 µM
[2]
  TRPV4 Efficacy (% ionomycin 4μM): < 10%
  IC50: > 100 µM
[3]
  IC50: > 100 µM
[4]; normalized to CP55940
  Emax ± SEM GIRK hCB2R: 74 ± 2%
[5]
  CL microsomes mouse: 464 µL/min/mg protein
[6]
  Emax ± SEM pERK hCB1R: 12 ± 4
  pEC50 ± SEM pERK hCB1R: < 4
[7]
  TRPV3 Efficacy (% ionomycin 4μM): 31.3%
  EC50: 0.12 ± 0.05 µM
  IC50: 12.9 µM
[11]; β-arrestin recruitment
  GPR55 Emax ± SEM (%) or % effect at 10 µM: -10 ± 3%
  GPR55 pEC50 (± SEM): < 5
[15]
  CL hepatocytes human: 9.2 µL/min/mio cells
[8]; hCB2R
  GIRK-GTPγS bias factor (BF): 0.31
  GIRK-GTPγS ΔΔlogR: -0.51
  GIRK-cAMP bias factor (BF): 2.42
  GIRK-cAMP ΔΔlogR: 0.38 ± 0.20
  GTPγS-cAMP bias factor (BF): 7.73
  GTPγS-cAMP ΔΔlogR: 0.89 ± 0.31
  LogR GIRK: 5.90
  LogR GTPγS: 6.82
  LogR cAMP: 8.37
  LogR pERK: 6.94
  LogR β-AR: 7.72
  pERK-GIRK bias factor (BF): 0.73
  pERK-GIRK ΔΔlogR: -0.13
  pERK-GTPγS bias factor (BF): 0.23
  pERK-GTPγS ΔΔlogR: -0.64
  pERK-cAMP bias factor (BF): 1.77
  pERK-cAMP ΔΔlogR: 0.25 ± 0.28
  β-AR-GIRK bias factor (BF): 15.07
  β-AR-GIRK ΔΔlogR: 1.18 ± 0.22
  β-AR-GTPγS bias factor (BF): 4.71
  β-AR-GTPγS ΔΔlogR: 0.67 ± 0.32
  β-AR-cAMP bias factor (BF): 36.90
  β-AR-cAMP ΔΔlogR: 1.57 ± 0.15
  β-AR-pERK bias factor (BF): 20.56
  β-AR-pERK ΔΔlogR: 1.31 ± 0.29
[8]; hCB2R, reference CP55940
  ΔLogR GIRK: -1.96
  ΔLogR GTPγS: -1.46
  ΔLogR cAMP: -2.35
  ΔLogR pERK: -2.1
  ΔLogR β-AR: -0.78
[8]; hCB2R, relative effectiveness
  RE GIRK: 0.01
  RE GTPγS: 0.03
  RE cAMP: 0.005
  RE pERK: 0.01
  RE β-AR: 0.16
[12]
  % inhibition beta 1 (h): -4%

## CCCC(C)(C)c1ccc2c(c1)OC(C)(C)[C@@H]1CC=C(C)C[C@@H]21 [JWH133]
[13]
  CL hepatocytes mouse: 9.8 µL/min/mio cells
[9]
  % inhibition mu (MOP) (h): 7%
[2]
  TRPV4 Efficacy (% ionomycin 4μM): 13.6%
  IC50: > 100 µM
[2]; read-out: TRPV4 Potency EC50
  EC50: 12 µM
[3]
  IC50: 48.4 ± 3.5 µM
[4]
  Emax ± SEM GIRK hCB2R: 31 ± 12
  pEC50 ± SEM GIRK hCB2R: < 5
[5]
  CL microsomes mouse: 63 µL/min/mg protein
[6]
  Emax ± SEM pERK hCB1R: 10 ± 3
  pEC50 ± SEM pERK hCB1R: < 4
[7]
  TRPV3 Efficacy (% ionomycin 4μM): < 10%
  IC50: 80.6 µM
[11]; β-arrestin recruitment
  GPR55 Emax ± SEM (%) or % effect at 10 µM: -2 ± 3%
  GPR55 pEC50 (± SEM): < 5
[15]
  CL hepatocytes human: 5.6 µL/min/mio cells
[8]
  GIRK-GTPγS bias factor (BF): 1.32
  GIRK-GTPγS ΔΔlogR: 0.12 ± 0.57
  GIRK-cAMP bias factor (BF): 3.54
  GIRK-cAMP ΔΔlogR: 0.55 ± 0.42
  GTPγS-cAMP bias factor (BF): 2.67
  GTPγS-cAMP ΔΔlogR: 0.43 ± 0.40
  LogR GIRK: 5.98
  LogR GTPγS: 6.27
  LogR cAMP: 8.28
  LogR pERK: 7.07
  LogR β-AR: 8.02
  RE GIRK: 0.01
  RE GTPγS: 0.01
  RE cAMP: 0.004
  RE pERK: 0.01
  RE β-AR: 0.33
  pERK-GIRK bias factor (BF): 0.84
  pERK-GIRK ΔΔlogR: -0.08
  pERK-GTPγS bias factor (BF): 1.11
  pERK-GTPγS ΔΔlogR: 0.05 ± 0.46
  pERK-cAMP bias factor (BF): 2.97
  pERK-cAMP ΔΔlogR: 0.47 ± 0.26
  ΔLogR GIRK: -1.89
  ΔLogR GTPγS: -2.01
  ΔLogR cAMP: -2.44
  ΔLogR pERK: -1.96
  ΔLogR β-AR: -0.48
  β-AR-GIRK bias factor (BF): 25.53
  β-AR-GIRK ΔΔlogR: 1.41 ± 0.43
  β-AR-GTPγS bias factor (BF): 33.81
  β-AR-GTPγS ΔΔlogR: 1.53 ± 0.41
  β-AR-cAMP bias factor (BF): 90.36
  β-AR-cAMP ΔΔlogR: 1.96 ± 0.15
  β-AR-pERK bias factor (BF): 30.41
  β-AR-pERK ΔΔlogR: 1.48 ± 0.27
[12]
  % inhibition beta 1 (h): -7%
